# Data as given in US20250152547A1, “COMPOSITIONS FOR DELIVERY OF LADOSTIGIL” (priority 2019, published 2025).
# Experiments:
# [1] = Concentration of ladostigil in plasma of rats after oral or rectal administration (LC-MS/MS); format: in vivo; settings: rat
# Experimental: Methods: Male Wister rats weighing 250-270g were used for these experiments. […] In other rats, the same dose of ladostigil was administered via a cannula gently inserted into the rectum and pushed forward to reach the colon. […] The brain was removed, and the cortex carefully dissected and stored at-80° C. until further analysis. Blood was collected in heparinized Eppendorf tubes, centrifuged at 4° C., 20,800 g for 10 min and the plasma was stored at −80° C. until further analysis.
# (§1) Samples were prepared for LC-MS analysis after precipitating the proteins in plasma and cortical extracts with methanol as described in Moradov et al. (2015). Briefly, rivastigmine 750 ng/ml (internal standard) was added to 50 μl of plasma or supernatant after brain homogenization and ladostigil was extracted with HPLC grade MeOH. 75 μl of double distilled water (DDW) was added to 150 μl of the supernatant to give a final ratio of DDW:MeOH 1:1. The samples were filtered through […] GHP membranes and injected into the LC-MS machine. LC-MS/MS analysis was also performed as described in Moradov et al. (2015).
# (§2) Ladostigil and rivastigmine were detected by an AB Sciex (Framingham, MA, USA) Triple Quad™ 5500 mass spectrometer in positive ion mode by electrospray ionization (ESI) and a multiple reaction monitoring (MRM) mode of acquisition. Data acquisition and analysis were performed on a Dell Optiplex 960 computer with Analyst 1.6.2 software distributed by AB Sciex. Quantitative calibration (0-100 ng/ml) was performed before every batch of samples. The calibration curve (y=a+bx) was obtained by linear least-squares regression of the measured peak area (y) versus the concentration added to the biological matrix (x). The limit of quantification (LOQ) of ladostigil in plasma and cortex was 50 pg/ml.
# [2] = Concentration of ladostigil in plasma of human subjects after a single oral dose (LC/MS/MS); format: in vivo, humans; settings: read-out: Concentration of ladostigil in plasma, mean ± STD (coefficient of variation)
# [3] = Concentration of ladostigil in brain (cortex) of rats after oral or rectal administration (LC-MS/MS); format: in vivo; settings: male, Wistar, rat, read-out: Concentration of ladostigil in brain (cortex), mean ± STD (coefficient of variation)
# Experimental: Methods: Male Wister rats weighing 250-270g were used for these experiments. Ladostigil was administered by gavage at a dose of 5 mg/kg (volume 0.25-0.27ml). In other rats, the same dose of ladostigil was administered via a cannula gently inserted into the rectum and pushed forward to reach the colon. The rats were anesthetized with isofluorane and sacrificed by decapitation at 0, 15, 30, 60 or 120 min after ladostigil administration. The brain was removed, and the cortex carefully dissected and stored at-80° C. until further analysis. Blood was collected in heparinized Eppendorf tubes, centrifuged at 4° C., 20,800 g for 10 min and the plasma was stored at −80° C. until further analysis.
# as §1, §2
# [4] = Blood levels of ladostigil after oral administration, detection time and inter subject variability; format: in vivo, humans and rodent species
# Experimental: Ladostigil is well absorbed from the gastro intestinal tract and can be detected in the blood within 15 minutes after oral administration in humans and rodent species. However, the inter subject variability in these blood levels at peak times after administration is very high with coefficients of variation of more than 100% irrespective of the dose administered. (Table 1). This is undesirable and could exacerbate any variability in the response to treatment by ladostigil of potential patients. The wide inter individual variation in blood levels may explain why the therapeutic effect of the drug in the clinical trial was not more pronounced.
# [5] = Concentration of ladostigil in brain (cortex) of rats after oral or rectal administration (LC-MS/MS); format: in vivo; settings: male, Wistar, rat, read-out: Concentration of ladostigil in brain (cortex), mean ± STD (coefficient of variation); remark: listed apart in the source
# [6] = normal healthy subjects aged 18-40, single oral dose 50 mg
# [7] = normal healthy subjects aged 18-40, single oral dose 100 mg
# [8] = oral administration (gavage) 5 mg/kg
# [9] = other: rectal administration, rectal administration 5 mg/kg
smiles,measurement,setting,value
"C#CCN[C@@H]1CCc2ccc(OC(=O)N(C)CC)cc21 [ladostigil, 6-(N-ethyl, N-methyl, carbamyloxy)-N propargyl-1(R)-aminoindan, tartarate]",concentration at 15 min,"[1]; male, Wistar, other: rectal administration, rats, rectal administration 5 mg/kg, 15 min, read-out: Concentration of ladostigil in plasma, mean ± STD (coefficient of variation)",60.6 ng/mL
same,concentration at 30 min,"[1]; male, Wistar, other: rectal administration, rats, rectal administration 5 mg/kg, 30 min, read-out: Concentration of ladostigil in plasma, mean ± STD (coefficient of variation)",47.2 ng/mL
same,concentration at 60 min,"[1]; male, Wistar, other: rectal administration, rats, rectal administration 5 mg/kg, 60 min, * significantly higher than after oral treatment p < 0.05, read-out: Concentration of ladostigil in plasma, mean ± STD (coefficient of variation)",33.7 ng/mL
same,concentration at 120 min,"[1]; male, Wistar, other: rectal administration, rats, rectal administration 5 mg/kg, 120 min, * significantly higher than after oral treatment p < 0.05, read-out: Concentration of ladostigil in plasma, mean ± STD (coefficient of variation)",14.1 ng/mL
same,concentration at 180 min,"[1]; male, Wistar, other: rectal administration, rats, rectal administration 5 mg/kg, 180 min, * significantly higher than after oral treatment p < 0.05, read-out: Concentration of ladostigil in plasma, mean ± STD (coefficient of variation)",13.9 ng/mL
same,concentration at 15 min,"[1]; male, Wistar rats, single oral dose 5 mg/kg, 15 min (Table 1), read-out: Concentration of ladostigil in plasma, mean ± STD (coefficient of variation)",53.7 ng/mL
same,concentration at 30 min,"[1]; male, Wistar rats, single oral dose 5 mg/kg, 30 min (Table 1), read-out: Concentration of ladostigil in plasma, mean ± STD (coefficient of variation)",36.4 ng/mL
same,concentration at 60 min,"[1]; male, Wistar rats, single oral dose 5 mg/kg, 60 min (Table 1), read-out: Concentration of ladostigil in plasma, mean ± STD (coefficient of variation)",8.3 ng/mL
same,concentration at 120 min,"[1]; male, Wistar rats, single oral dose 5 mg/kg, 120 min (Table 1), read-out: Concentration of ladostigil in plasma, mean ± STD (coefficient of variation)",4.9 ng/mL
same,concentration at 180 min,"[1]; male, Wistar rats, single oral dose 5 mg/kg, 180 min (Table 1), read-out: Concentration of ladostigil in plasma, mean ± STD (coefficient of variation)",2.4 ng/mL
same,concentration at 15 min,"[1]; Wistar rats, single oral dose 1 mg/kg, 15 min, read-out: Concentration of ladostigil in plasma, mean ± STD (coefficient of variation)",18.7 ng/mL
same,concentration at 30 min,"[1]; Wistar rats, single oral dose 1 mg/kg, 30 min, read-out: Concentration of ladostigil in plasma, mean ± STD (coefficient of variation)",12.3 ng/mL
same,concentration at 60 min,"[1]; Wistar rats, single oral dose 1 mg/kg, 60 min, read-out: Concentration of ladostigil in plasma, mean ± STD (coefficient of variation)",6.7 ng/mL
same,concentration at 120 min,"[1]; Wistar rats, single oral dose 1 mg/kg, 120 min, read-out: Concentration of ladostigil in plasma, mean ± STD (coefficient of variation)",1.6 ng/mL
same,concentration at 15 min,[2]; [6],3.74 ng/mL
same,concentration at 30 min,[2]; [6],18 ng/mL
same,concentration at 60 min,[2]; [6],8.29 ng/mL
same,concentration at 120 min,[2]; [6],2.88 ng/mL
same,concentration at 15 min,[2]; [7],9.3 ng/mL
same,concentration at 30 min,[2]; [7],34.8 ng/mL
same,concentration at 60 min,[2]; [7],97.6 ng/mL
same,concentration at 120 min,[2]; [7],44.4 ng/mL
same,concentration at 180 min,"[2]; normal healthy subjects aged 18-40, single oral dose 100 mg, 180 min",15.3 ng/mL
same,concentration at 15 min,[3]; [8],17.9 ng/g
same,concentration at 30 min,[3]; [8],9.3 ng/g
same,concentration at 60 min,[3]; [8],6.7 ng/g
same,concentration at 120 min,[3]; [8],4.9 ng/g
same,concentration at 15 min,[3]; [9],14.3 ng/g
same,concentration at 30 min,[3]; [9],11.9 ng/g
same,concentration at 60 min,[3]; [9],9.3 ng/g
same,concentration at 120 min,[3]; [9],7.4 ng/g
same,Coefficient of variation of blood levels (inter subject variability),"[4]; at peak times after oral administration, irrespective of the dose",more than 100%
same,Time after which ladostigil can be detected in the blood,"[4]; oral administration, humans and rodent species",≤ 15 min
same,concentration at 180 min,[5]; [8],2.9 ng/g
same,concentration at 180 min,[5]; [9],2.8 ng/g
